Laboratory results as given in ChEMBL document CHEMBL1153636, “The phosphoramidate ProTide approach greatly enhances the activity of beta-2'-C-methylguanosine against hepatitis C virus” (Bioorg Med Chem Lett, 2009).
pEC50, pIC50: −log10 of the molar value.

Tests used:
[1] = Cytotoxicity against human Huh5-2 cells; assay type: cell-based, Huh-5-2
Hepatitis C virus [2] = test: Antiviral activity against HCV assessed as inhibition of viral replicon replication in human Huh5-2 cells; assay type: functional, organism-based, Hepacivirus hominis; conditions: Huh-5-2
carboxypeptidase [3] = test: Stability in presence of carboxypeptidase assessed as parent ProTide compound remaining after 10 mins; assay type: ADME; conditions: read-out: Stability
carboxypeptidase [4] = test: Stability in presence of carboxypeptidase assessed as parent ProTide compound remaining; assay type: ADME
Hepatitis C virus [5] = test: Antiviral activity against HCV by viral replicon assay; assay type: functional, organism-based, Hepacivirus hominis
[6] = Inhibition of HCV RNA-dependent RNA polymerase; design: species or system Hepacivirus hominis
carboxypeptidase [7] = test: Stability in presence of carboxypeptidase assessed as parent ProTide compound remaining after 13 hrs; assay type: ADME; conditions: read-out: Stability

| SMILES | CC50 [1] [µM] | pEC50 (Hepatitis C virus [2]) | remaining at 10 min (carboxypeptidase [3]) [%] | half-life (carboxypeptidase [4]) [h] | pEC50 (Hepatitis C virus [5]) | pIC50 [6] | remaining at 13 h (carboxypeptidase [7]) [%] |
| --- | --- | --- | --- | --- | --- | --- | --- |
| C[C@@]1(O)[C@H](O)[C@@H](CO)O[C@H]1n1cnc2c(N)ncnc21 | > 50 | 6.60 |  |  |  |  |  |
| C[C@H](NP(=O)(OC[C@H]1O[C@@H](n2cnc3c(N)ncnc32)[C@](C)(O)[C@@H]1O)Oc1cccc2ccccc12)C(=O)OC(C)(C)C (some centres undefined) | > 50 | 5.38 |  |  |  |  |  |
| CCOC(=O)[C@H](C)NP(=O)(OC[C@H]1O[C@@H](n2cnc3c(N)ncnc32)[C@](C)(O)[C@@H]1O)Oc1cccc2ccccc12 (some centres undefined) | > 50 | 6.62 |  |  |  |  |  |
| C[C@H](NP(=O)(OC[C@H]1O[C@@H](n2cnc3c(=O)[nH]c(N)nc32)[C@](C)(O)[C@@H]1O)Oc1cccc2ccccc12)C(=O)OCc1ccccc1 (some centres undefined) | > 50 | 6.92 | 7 | 0.05 |  |  |  |
| C[C@@]1(O)[C@H](O)[C@@H](CO)O[C@H]1n1cnc2c(=O)[nH]c(N)nc21 [2'-B-METHYL-GUANOSINE] | > 50 | 5.00 |  |  | 5.46 | 6.89 |  |
| C[C@H](NP(=O)(OC[C@H]1O[C@@H](n2cnc3c(N)ncnc32)[C@](C)(O)[C@@H]1O)Oc1cccc2ccccc12)C(=O)OCc1ccccc1 (some centres undefined) | > 50 | 6.57 |  |  |  |  |  |
| C[C@H](NP(=O)(OC[C@H]1O[C@@H](n2cnc3c(=O)[nH]c(N)nc32)[C@](C)(O)[C@@H]1O)Oc1cccc2ccccc12)C(=O)OC(C)(C)C (some centres undefined) | > 50 | 4.57 |  | 33 |  |  | 24 |
| CCOC(=O)[C@H](C)NP(=O)(OC[C@H]1O[C@@H](n2cnc3c(=O)[nH]c(N)nc32)[C@](C)(O)[C@@H]1O)Oc1cccc2ccccc12 (some centres undefined) | > 50 | 6.55 |  |  |  |  |  |
| COC(=O)[C@H](C)NP(=O)(OC[C@H]1O[C@@H](n2cnc3c(=O)[nH]c(N)nc32)[C@](C)(O)[C@@H]1O)Oc1cccc2ccccc12 (some centres undefined) | > 50 | 6.64 |  |  |  |  |  |
